Data as given in patent US12173135B2, “Plasticizer and plastic product” (LARGAN MEDICAL CO., LTD., priority 2019, dated 2024).
Each block holds one compound with its values, some of them ahead of it.

Experiment: biodegradation tests (ASTM 5338) of the plasticizers
Method: The biodegradation tests (ASTM 5338) of the plasticizers with different molecular structures are performed below. The comparison, the 29th Example and the 30th Example are tested, and the degrees of degradation under different days are listed in the following table.

- Degree of Degradation (%) (day 0): 0%
- Degree of Degradation (%) (day 3): 6.70%
- Degree of Degradation (%) (day 7): 8.53%
- Degree of Degradation (%) (day 12): 20.53%
- Degree of Degradation (%) (day 15): 26.53%
- Degree of Degradation (%) (day 19): 35.22%
- Degree of Degradation (%) (day 24): 44.08%
- Degree of Degradation (%) (day 28): 48.75%
- Degree of Degradation (%) (day 33): 51.62%
- Degree of Degradation (%) (day 36): 53.72%
- Degree of Degradation (%) (day 40): 55.78%
- Degree of Degradation (%) (day 45): 57.19%
- Degree of Degradation (%) (day 49): 58.41%
- Degree of Degradation (%) (day 54): 59.35%
- Degree of Degradation (%) (day 58): 59.61%
- Degree of Degradation (%) (day 63): 59.85%
- Degree of Degradation (%) (day 67): 60.34%
- Degree of Degradation (%) (day 71): 62.58%
- Degree of Degradation (%) (day 75): 63.96%
- Degree of Degradation (%) (day 81): 63.75%
- Degree of Degradation (%) (day 85): 62.72%
- Degree of Degradation (%) (day 89): 64.14%
- Degree of Degradation (%) (day 93): 65.04%
- Degree of Degradation (%) (day 98): 65.04%
- Degree of Degradation (%) (day 102): 66.44%
- Degree of Degradation (%) (day 105): 66.44%
- Degree of Degradation (%) (day 109): 66.25%
- Degree of Degradation (%) (day 114): 66.04%
- Degree of Degradation (%) (day 118): 66.80%
- Degree of Degradation (%) (day 124): 66.80%
- Degree of Degradation (%) (day 128): 67.01%
- Degree of Degradation (%) (day 132): 66.81%
- Degree of Degradation (%) (day 137): 66.81%
- Degree of Degradation (%) (day 140): 66.81%
- Degree of Degradation (%) (day 144): 66.01%
- Degree of Degradation (%) (day 147): 64.81%
- Degree of Degradation (%) (day 151): 64.62%
- Degree of Degradation (%) (day 155): 64.23%
- Degree of Degradation (%) (day 158): 65.50%
- Degree of Degradation (%) (day 161): 66.30%
- Degree of Degradation (%) (day 165): 66.92%
- Degree of Degradation (%) (day 168): 65.84%
- Degree of Degradation (%) (day 172): 67.51%
- Degree of Degradation (%) (day 175): 69.97%
- Degree of Degradation (%) (day 179): 71.93%
Compound: CCCCCCCCOC(=O)CC(N)C(=O)OCCCCCCCC (racemic) [29th Example]

- Degree of Degradation (%) (day 0): 0%
- Degree of Degradation (%) (day 3): 3.21%
- Degree of Degradation (%) (day 7): 1.97%
- Degree of Degradation (%) (day 12): 1.09%
- Degree of Degradation (%) (day 15): 1.87%
- Degree of Degradation (%) (day 19): 4.13%
- Degree of Degradation (%) (day 24): 6.63%
- Degree of Degradation (%) (day 28): 13.13%
- Degree of Degradation (%) (day 33): 17.63%
- Degree of Degradation (%) (day 36): 26.70%
- Degree of Degradation (%) (day 40): 33.47%
- Degree of Degradation (%) (day 45): 38.10%
- Degree of Degradation (%) (day 49): 43.93%
- Degree of Degradation (%) (day 54): 47.28%
- Degree of Degradation (%) (day 58): 60.14%
- Degree of Degradation (%) (day 63): 67.90%
- Degree of Degradation (%) (day 67): 69.50%
- Degree of Degradation (%) (day 71): 71.37%
- Degree of Degradation (%) (day 75): 72.99%
- Degree of Degradation (%) (day 81): 73.19%
- Degree of Degradation (%) (day 85): 73.19%
- Degree of Degradation (%) (day 89): 73.53%
- Degree of Degradation (%) (day 93): 78.89%
- Degree of Degradation (%) (day 98): 78.51%
- Degree of Degradation (%) (day 102): 78.14%
- Degree of Degradation (%) (day 105): 78.50%
- Degree of Degradation (%) (day 109): 81.63%
- Degree of Degradation (%) (day 114): 81.09%
- Degree of Degradation (%) (day 118): 84.55%
- Degree of Degradation (%) (day 124): 84.55%
- Degree of Degradation (%) (day 128): 86.04%
- Degree of Degradation (%) (day 132): 86.55%
- Degree of Degradation (%) (day 137): 86.81%
- Degree of Degradation (%) (day 140): 86.58%
- Degree of Degradation (%) (day 144): 86.58%
- Degree of Degradation (%) (day 147): 87.69%
- Degree of Degradation (%) (day 151): 88.54%
- Degree of Degradation (%) (day 155): 88.54%
- Degree of Degradation (%) (day 158): 87.80%
- Degree of Degradation (%) (day 161): 87.80%
- Degree of Degradation (%) (day 165): 87.80%
- Degree of Degradation (%) (day 168): 88.40%
- Degree of Degradation (%) (day 172): 89.55%
- Degree of Degradation (%) (day 175): 89.91%
- Degree of Degradation (%) (day 179): 91.46%
Compound: O=C(OCCOC(=O)c1ccccc1O)c1ccccc1O [30th Example]
